Reference: patent US20110160296A1, “PREPARATION OF 6-OXA-8ALPHA-STEROID ESTROGEN ANALOGUES - A NEW GROUP OF UNNATURAL ESTROGENS AND THEIR USE IN MEDICINE” (TOPASS GMBH, priority 2007, published 2011)

How the values were obtained:
[1] = test system: ovariectomised rats, brain tissue; test: Lipid peroxidation parameters in brain tissue of ovariectomised rats (antioxidant action); type: in vivo; conditions: per os in olive oil, single dose of 5 mg per 100 g of body weight the day before euthanasia
Method: The experimental conditions: compound XVI was given per os in olive oil as a single dose of 5 mg per 100 g of body weight the day before euthanasia. […] Control group of animals were treated using olive oil without steroids.
Schiff bases contain was calculated in conventional units according to fluorometric data; triene conjugates—in conventional units—according to the spectrophotometer data under wave-length 274 nm.

[2] = test system: ovariectomised rats; test: Ovariectomized rat assay: body weight, uterus, femur, serum cholesterol and triglycerides; type: in vivo, rats (Sprague Dawley); conditions: n = 20
Method: (§1) The investigation of biological properties of steroids was carried out on sham operated and ovariectomized rats (Sprague Dawley) under the following conditions: compounds IV, XII, XIV and XV were given in olive oil, daily for 35 days.

[3] = test system: ovariectomised rats; test: Effects on serum lipids and liver lipids of ovariectomised rats; type: in vivo, rats (Sprague Dawley)
Method: as §1

[4] = test system: female mouse-hybrids F1CBAxC57BI6; test: Influence on spleen, antibody-forming cells and thymus of mice after single per os dose; type: in vivo; conditions: female mouse-hybrids F1CBAxC57BI6, per os single-dosing administration (5 mg/kg of BW)
Source text: Method is described in the article.

[5] = Table 5, 0.05 mg/kg of body weight
[6] = Table 1, 0.5 mg/kg BW in olive oil, daily for 35 days
[7] = Table 2, 0.1 mg/kg intramuscular injection
[8] = Table 3, 0.2 mg/kg intramuscular injection
[9] = Table 3, 0.5 mg/kg intramuscular injection
[10] = Table 5, 5 mg/kg of body weight in olive oil, daily for 35 days

Structure (SMILES): COc1ccc2c(c1)O[C@H](C)[C@H]1[C@@H]2CC[C@]2(C)[C@@H](OC(C)=O)CCC[C@@H]12 [Compound XVI]
- Triene conjugates ([1]; control 0.209 ± 0.022): 0.152 ± 0.022 conventional units/mg of phospholipids
- Klein coefficient ([1]; control 0.70 ± 0.01): 0.71 ± 0.05
- Malonic dialdehyde ([1]; control 1.65 ± 0.14): 1.80 ± 0.18 nmol/mg of phospholipids
- Diene conjugates ([1]; control 12.2 ± 0.7): 9.5 ± 1.0 nmol/mg of phospholipids
- Schiff bases ([1]; control 129 ± 10): 96 ± 6 conventional units/mg of phospholipids

Structure (SMILES): C#C[C@]1(O)CC[C@H]2[C@@H]3CCc4cc(O)ccc4[C@H]3CC[C@@]21C [EE, 17α-Ethynylestradiol, reference compound]
- Change of body weight ([2]; Table 1, 0.1 mg/kg BW): 23.0 ± 4.3 g
- Serum cholesterol ([2]; Table 1, 0.1 mg/kg BW): 30.0 ± 1.7 mg/dL
- Uterus weight index ([2]; Table 1, 0.1 mg/kg BW): 154.0 ± 7.8 mg/100 g BW
- Change of body weight [2, 5]: 3 ± 4 g
- Femur weight index (ash femur weight/wet femur weight) [2, 5]: 0.436 ± 0.004
- Serum cholesterol [2, 5]: 45.5 ± 2.1 mg/dL
- Serum triglycerides [2, 5]: 129.8 ± 14.5 mg/dL
- Uterus weight index [2, 5]: 164 ± 11 mg/100 g BW

Structure (SMILES): CC(=O)Oc1ccc2c(c1)OC[C@H]1[C@@H]2CC[C@]2(C)C(=O)CC[C@@H]12 [compound IV, 6-Oxa-8α-estrone acetate]
- Change of body weight [2, 6]: 45.5 ± 3.8 g
- Femur weight index (ash femur weight/wet femur weigh) [2, 6]: 0.4219 ± 0.005 mg/mg
- Serum cholesterol [2, 6]: 51.9 ± 1.7 mg/dL
- Uterus weight index [2, 6]: 71.8 ± 3.6 mg/100 g BW

Structure (SMILES): COc1ccc2c(c1)OC[C@H]1[C@@H]2CC[C@]2(C)C(=O)CCC[C@@H]12 [compound XII, 6-Oxa-D-homo-8α-estrone methyl ether]
- Liver lipids Cholesterol [3, 7]: 2.69 ± 0.06 mg/g
- Liver lipids Triglycerides [3, 7]: 5.21 ± 0.49 mg/g
- Serum lipids Cholesterol [3, 7]: 1.68 ± 0.06 mmol/L
- Serum lipids Triglycerides [3, 7]: 0.42 ± 0.05 mmol/L
- Liver lipids Cholesterol [3, 8]: 2.69 ± 0.06 mg/g
- Liver lipids Triglycerides [3, 8]: 3.72 ± 0.51 mg/g
- Serum lipids Cholesterol [3, 8]: 1.04 ± 0.12 mmol/L
- Serum lipids Triglycerides [3, 8]: 0.85 ± 0.05 mmol/L
- Liver lipids Cholesterol [3, 9]: 2.31 ± 0.06 mg/g
- Liver lipids Triglycerides [3, 9]: 3.17 ± 0.32 mg/g
- Serum lipids Cholesterol [3, 9]: 0.85 ± 0.08 mmol/L
- Serum lipids Triglycerides [3, 9]: 0.94 ± 0.05 mmol/L
- Liver lipids Cholesterol ([3]; Table 4, 0.2 mg/kg per os): 3.45 ± 0.15 mg/g
- Liver lipids Triglycerides ([3]; Table 4, 0.2 mg/kg per os): 7.1 ± 0.6 mg/g
- Serum lipids Cholesterol ([3]; Table 4, 0.2 mg/kg per os): 0.99 ± 0.08 mmol/L
- Serum lipids Triglycerides ([3]; Table 4, 0.2 mg/kg per os): 1.45 ± 0.14 mmol/L

Structure (SMILES): COc1ccc2c(c1)O[C@H](C)[C@H]1[C@@H]2CC[C@]2(C)C(=O)CCC[C@@H]12 [compound XIV, 7β-Methyl-D-homo-6-oxa-8α-estrone methyl ether]
- Change of body weight [2, 10]: 51 ± 4 g
- Femur weight index (ash femur weight/wet femur weight) [2, 10]: 0.392 ± 0.004
- Serum cholesterol [2, 10]: 54.5 ± 2.8 mg/dL
- Serum triglycerides [2, 10]: 62.2 ± 5.2 mg/dL
- Uterus weight index [2, 10]: 34 ± 2 mg/100 g BW

Structure (SMILES): C[C@H]1Oc2cc(O)ccc2[C@H]2CC[C@]3(C)C(=O)CCC[C@H]3[C@H]21 [compound XV]
- content of antibody-forming cells [4]: does not influence
- mass and number of cells in spleen [4]: does not influence
- mass and number of cells in the thymus [4]: does not influence
- Change of body weight [2, 10]: 48 ± 4 g
- Femur weight index (ash femur weight/wet femur weight) [2, 10]: 0.390 ± 0.004
- Serum cholesterol [2, 10]: 52.2 ± 2.6 mg/dL
- Uterus weight index [2, 10]: 33 ± 3 mg/100 g BW
